# Assays:
# [1] = system: NCI-N87 stomach cancer cell line; experiment: Cell growth inhibition assay, NCI-N87 (CellTiter-Glo); assay type: cell-based; conditions: Homo sapiens; NCI-N87, 5,000 cells/well, 96 hours
# Description: The inhibitory effects of the compounds of the present invention against the growth of cancer cells were evaluated as shown below. The cancer cell lines including prostate cancer cell lines (LNCaP, DU-145), stomach cancer cell line (NCI-N87), and breast cancer cell lines (MDA-MB-468) were cultured under the protocol provided by each supplier. A medium supplemented with 10 ng/mL of IL-6 was used for LNCaP, a prostate cancer cell line, when treated with a drug. Each type of cells to be used in experiments was sub-cultured in a 96-well plate by counting the exact number of cells using Tali™ Image-based Cytometer (Life Technologies). In a 96-well plate, DU-145 was employed with 3,000 cells/well; NCI-N87 was employed with 5,000 cells/well; and LNCaP and MDA-MB-468 were employed with 10,000 cells/well. The cells were treated with the compounds listed in Examples which were diluted in various concentrations. Upon completion of the compounds treatment, LNCaP, DU-145, NCI-N87 cells were cultured at 37° C. under 5% CO2 for 96 hours, and MDA-MB-468 cells were cultured at 37° C. in air for 96 hours. Subsequently, the cells were observed under microscope and drug precipitation and particular findings were investigated and recorded. And then, the 96-well plate was placed at room temperature for 30 minutes, added with 20 pt/well of CellTiter-Glo solution (Cat No. G7573, Promega) and shaken for 10 minutes, followed by being subjected to the measurement using PHERAstar™ microplate reader (BMG LABTECH) according to the supplier's general luminometer protocol. Wells where only culture liquid added without cell plating were used as a negative control, whereas wells where culture liquid containing 0.1% DMSO instead of the compounds listed in Examples were used as a positive control.
# STAT3 = STAT3 reporter gene assay (luciferase), LNCaP stable cell line pSTAT3-TA-luc, IL-6 stimulation; assay type: cell-based, human; conditions: Homo sapiens
# Description: 1-1) Experiment on the Inhibition of STAT3 Activity
# A human prostate cancer cell line (LNCaP stable cell line; plasmid pSTAT3-TA-luc), which contains a stably operating STAT3 promoter, was cultured in RPMI1640 medium (Cat No. 11875, Life Technologies) containing 10% fetal bovine serum (FBS) (Cat No. SH30396, Thermo Scientific) and 150 μg/mL G-418 solution (Cat No. 04 727 894 001, Roche). The reporter gene assay using LNCaP stable cell line was performed in RPMI1640 medium containing 3% DCC-FBS without G-418 solution. LNCaP stable cells were plated in two (2) white 96-well plates with 30,000 cells/50 μL in each well. The cells were cultured at 37° C., under 5% CO2 for 24 hours, and then treated with the compounds listed in Examples which were diluted in various concentrations. Subsequently, IL-6 was added to each well with a final concentration of 10 ng/mL. Upon completion of the treatment with the compounds and IL-6, the cells were cultured at 37° C., under 5% CO2 for 24 hours. The plates were observed under microscope and drug precipitation and particular findings were investigated and recorded.
# (§1) The luciferase assay and the cell viability assay were performed respectively with one of the two plates. For the luciferase assay, the liquid media in the 96-well plate was removed, and then, 20 μL, of passive cell lysis buffer was added to each well. After shaking the plate for 30 minutes, luciferase activities of each well were measured in a PHERAstar™ microplate reader (BMG LABTECH) using a luciferase assay system (Cat No. E1501, Promega). For the cell viability assay, the 96-well plate was placed at room temperature for 30 minutes, added with 20 μL/well of CellTiter-Glo solution (Cat No. G7573, Promega), and shaken for 10 minutes in order to measure cytotoxicity caused by the compounds listed in Examples with a PHERAstar™ microplate reader (BMG LABTECH). Wells without 0.1% DMSO and stimulation were used as a negative control and wells with 0.1% DMSO and stimulation were used as a positive control.
# (§2) The results of evaluation on the inhibitory effect of the compounds listed in the Examples on the dimerization of STAT3 and STAT1 obtained via the STAT3 and STAT1 reporter gene assays are shown in Table 9 below.
# STAT1 = STAT1 reporter gene assay (luciferase), U2OS stable cell line pGL4-STAT1-TA-luc, IFN-γ stimulation; assay type: cell-based, human; conditions: Homo sapiens, IFN-γ 50 ng/mL, 8 hours, read-out: IC50 (μM) pSTAT1
# Description: 1-2) Experiment on the Inhibition of STAT1 Activity
# A human osteosarcoma cell line (U2OS stable cell line; pGL4-STAT1-TA-luc), which contains a stably operating STAT1 promoter, was cultured in McCoy 5′A medium (Cat No. 16600, Life Technologies) containing 10% FBS (Cat No. SH30396, Thermo Scientific) and 1000 μg/mL G418 solution (Cat No. 04 727 894 001, Roche). The reporter gene assay using U2OS stable cell line was performed in McCoy 5′A medium containing 10% FBS without G-418 solution. U2OS stable cells were plated in two (2) white 96-well plates with 25,000 cells/50 pt in each well. The cells were cultured at 37° C., under 5% CO2 for 24 hours, and then treated with the compounds listed in Examples which were diluted in various concentrations. Subsequently, IFN-γ was added to each well with a final concentration of 50 ng/mL. Upon completion of the treatment with the compounds and IFN-γ, the cells were cultured at 37° C., under 5% CO2 for 8 hours. The plates were observed under microscope and drug precipitation and particular findings were investigated and recorded.
# as §1, with “of” for “of the”, “μL” for “μL,”
# as §2
IC50 [1] [µM],IC50 (STAT3) [µM],IC50 (STAT1) [µM],Structure (SMILES)
0.45,0.13,> 50,"O=C(Nc1cc(Cl)nc(Oc2ccc(Cl)cc2)c1)c1cc2cc(C3CCCS3(=O)=O)ccc2s1 (centres unmarked) [Example 73, N-(2-chloro-6-(4-chlorophenoxy)pyridin-4-yl)-5-(1,1-dioxidotetrahydrothiophen-2-yl)benzo[b]thiophene-2-carboxamide]"
0.27,0.18,> 50,"Cc1noc(C)c1Oc1cc(NC(=O)c2cc3cc(C(C)(C)S(C)(=O)=O)ccc3s2)cc(Cl)n1 [Example 113, N-(2-chloro-6-((3,5-dimethylisoxazol-4-yl)oxy)pyridin-4-yl)-5-(2-(methylsulfonyl)propan-2-yl)benzo[b]thiophene-2-carboxamide]"
,6,8.6,"COC(=O)c1cc(Oc2cc(NC(=O)c3cc4cc(C(C)(C)S(C)(=O)=O)ccc4s3)cc(Cl)n2)no1 [Example 118, methyl 3-((6-chloro-4-(5-(2-(methylsulfonyl)propan-2-yl)benzo[b]thiophene-2-carboxamido)pyridin-2-yl)oxy)isoxazole-5-carboxylate]"
,0.21,> 50,"CC(C)(c1ccc2cc(C(=O)Nc3cc(Cl)cc(Oc4ccc(Cl)cc4)c3)[nH]c2c1)S(C)(=O)=O [Example 40, N-(3-chloro-5-(4-chlorophenoxy)phenyl)-6-(2-(methylsulfonyl)propan-2-yl)-1H-indole-2-carboxamide]"
,0.011,> 50,"COc1cc(OC(F)(F)F)cc(C(C)(C)c2cc(NC(=O)c3cc4cc(C(C)(C)S(C)(=O)=O)ccc4s3)cc(Cl)n2)c1 [Example 90, N-(2-chloro-6-(2-(3-methoxy-5-(trifluoromethoxy)phenyl)propan-2-yl)pyridin-4-yl)-5-(2-(methylsulfonyl)propan-2-yl)benzo[b]thiophene-2-carboxamide]"
,0.11,> 50,"CC(C)(c1ccc2sc(C(=O)Nc3cc(Cl)nc(Oc4ccc(Cl)cn4)c3)cc2c1)S(C)(=O)=O [Example 85, N-(2-chloro-6-((5-chloropyridin-2-yl)oxy)pyridin-4-yl)-5-(2-(methylsulfonyl)propan-2-yl)benzo[b]thiophene-2-carboxamide]"
,0.12,> 50,"CC(C)(c1ccc2sc(C(=O)Nc3cc(Cl)cc(Oc4ccc(Cl)nc4)c3)cc2c1)S(C)(=O)=O [Example 60, N-(3-chloro-5-((6-chloropyridin-3-yl)oxy)phenyl)-5-(2-(methylsulfonyl)propan-2-yl)benzo[b]thiophene-2-carboxamide]"
,0.079,> 50,"CC(C)(c1ccc2sc(C(=O)Nc3cc(Cl)nc(Oc4ccc(Cl)nc4)c3)cc2c1)S(C)(=O)=O [Example 65, N-(2-chloro-6-((6-chloropyridin-3-yl)oxy)pyridin-4-yl)-5-(2-(methylsulfonyl)propan-2-yl)benzo[b]thiophene-2-carboxamide]"

# More lines, now with the values behind:
Structure (SMILES),IC50 [1] [µM],IC50 (STAT3) [µM],IC50 (STAT1) [µM]
"CC(C)(c1ccc(Cl)cc1)c1cc(Cl)cc(NC(=O)c2cc3cc(CS(C)(=N)=O)ccc3s2)c1 (centres unmarked) [Example 36, N-(3-chloro-5-(2-(4-chlorophenyl)propan-2-yl)phenyl)-5-((S-methylsulfonimidoyl)methyl)benzo[b]thiophene-2-carboxamide]",0.25,0.064,42.1
"CC(C)(c1cc(Cl)cc(NC(=O)c2cc3cc(C(C)(C)S(C)(=O)=O)ccc3s2)c1)c1cc(OC2CC2)cc(OC(F)(F)F)c1 [Example 15, N-(3-chloro-5-(2-(3-cyclopropoxy-5-(trifluoromethoxy)phenyl)propan-2-yl)phenyl)-5-(2-(methylsulfonyl)propan-2-yl)benzo[b]thiophene-2-carboxamide]",0.0093,0.0057,> 50
"Cc1csc(C(C)(C)c2cc(Cl)cc(NC(=O)c3cc4cc(C(C)(C)S(C)(=O)=O)ccc4s3)c2)c1 [Example 32, N-(3-chloro-5-(2-(4-methylthiophen-2-yl)propan-2-yl)phenyl)-5-(2-(methylsulfonyl)propan-2-yl)benzo[b]thiophene-2-carboxamide]",0.076,0.01,> 50
"CC(C)(c1cc(Cl)cc(NC(=O)c2cc3cc(C(C)(C)S(C)(=O)=O)ccc3s2)c1)c1cc(OCC(F)(F)F)cc(OC(F)(F)F)c1 [Example 12, N-(3-chloro-5-(2-(3-(2,2,2-trifluoroethoxy)-5-(trifluoromethoxy)phenyl)propan-2-yl)phenyl)-5-(2-(methylsulfonyl)propan-2-yl)benzo[b]thiophene-2-carboxamide]",0.025,0.002,> 50
"CC(C)c1ccc(C(C)(C)c2cc(Cl)cc(NC(=O)c3cc4cc(C(C)(C)S(C)(=O)=O)ccc4s3)c2)s1 [Example 28, N-(3-chloro-5-(2-(5-isopropylthiophen-2-yl)propan-2-yl)phenyl)-5-(2-(methylsulfonyl)propan-2-yl)benzo[b]thiophene-2-carboxamide]",,0.0085,> 50
"COc1cc(OC(F)(F)F)cc(C(C)(C)c2cccc(NC(=O)c3cc4cc(C(C)(C)S(C)(=O)=O)ccc4s3)c2)c1 [Example 3, N-(3-(2-(3-methoxy-5-(trifluoromethoxy)phenyl)propan-2-yl)phenyl)-5-(2-(methylsulfonyl)propan-2-yl)benzo[b]thiophene-2-carboxamide]",,0.0098,> 50
"COc1cc(OC(F)(F)F)cc(C(C)(C)c2cc(Cl)cc(NC(=O)c3cc4cc(C(C)(C)S(C)(=O)=O)ccc4s3)c2)c1 [Example 7, N-(3-chloro-5-(2-(3-methoxy-5-(trifluoromethoxy)phenyl)propan-2-yl)phenyl)-5-(2-(methylsulfonyl)propan-2-yl)benzo[b]thiophene-2-carboxamide]",,0.0088,> 50
"CC(C)(c1ccc(Cl)cc1)c1cc(Cl)cc(NC(=O)c2cc3cc(C(C)(C)S(C)(=O)=O)ncc3s2)c1 [Example 26, N-(3-chloro-5-(2-(4-chlorophenyl)propan-2-yl)phenyl)-5-(2-(methylsulfonyl)propan-2-yl)thieno[2,3-c]pyridine-2-carboxamide]",,0.065,> 50

# Source: patent publication US10023591B2, “Heterocyclic derivatives and use thereof” (C&C RESEARCH LABORATORIES, priority 2014, dated 2018)
